{"source": "patent US7387888B2", "about": "“Coronamycins” (priority 2004, dated 2008)", "key": {"[1]": {"system": "Cryptococcus neoformans (ATCC 32045)", "experiment": "microbroth dilution assay of human pathogenic yeasts (NCCLS M27A, Alamar Blue)", "type": "cell-based", "settings": "read at 72 hours", "procedure": "(§1) Microbroth dilution assays of human pathogenic yeasts were performed as described in the NCCLS M27A (NCCLS, 1997) with the addition of Alamar Blue (Trek Diagnostics Systems, Inc., Westlake, Ohio) as a colorimetric indicator of viability (Espinel-Ingroff et al., 1999, J. Clin. Microbiol. 37: 591-595). All isolates were obtained from the ATCC. The assays were performed in sterile 96 well plates. The total volume per well was 100 μl. Two wells were inoculated for a given concentration. The MIC was defined as that concentration of compound resulting in no visible growth of the test organism after 24 to 48 hours of incubation with the exception of Cryptococcus neoformans which was read at 72 hours. Flucytosine was included as a control antifungal compound."}, "[2]": {"system": "Candida albicans (ATCC 24433)", "experiment": "microbroth dilution assay of human pathogenic yeasts (NCCLS M27A, Alamar Blue)", "type": "cell-based", "settings": "24 to 48 hours", "procedure": "as §1"}, "[3]": {"system": "Candida parapsilosis (ATCC 90018)", "experiment": "microbroth dilution assay of human pathogenic yeasts (NCCLS M27A, Alamar Blue)", "type": "cell-based", "settings": "24 to 48 hours", "procedure": "as §1"}, "[4]": {"system": "Candida krusei (ATCC 6258)", "experiment": "microbroth dilution assay of human pathogenic yeasts (NCCLS M27A, Alamar Blue)", "type": "cell-based", "settings": "24 to 48 hours", "procedure": "as §1"}, "[5]": {"system": "Candida tropicalis (ATCC 750)", "experiment": "microbroth dilution assay of human pathogenic yeasts (NCCLS M27A, Alamar Blue)", "type": "cell-based", "settings": "24 to 48 hours", "procedure": "as §1"}, "[6]": {"system": "Candida albicans (ATCC 90028)", "experiment": "microbroth dilution assay of human pathogenic yeasts (NCCLS M27A, Alamar Blue)", "type": "cell-based", "settings": "24 to 48 hours", "procedure": "as §1"}, "[7]": {"system": "Saccharomyces cerevisiae (ATCC 9763)", "experiment": "microbroth dilution assay of human pathogenic yeasts (NCCLS M27A, Alamar Blue)", "type": "cell-based", "settings": "24 to 48 hours", "procedure": "as §1"}, "[8]": {"system": "Candida parapsilosis (ATCC 22019)", "experiment": "microbroth dilution assay of human pathogenic yeasts (NCCLS M27A, Alamar Blue)", "type": "cell-based", "settings": "24 to 48 hours", "procedure": "as §1"}, "in vitro": {"experiment": "in vitro", "settings": "human, primary mammary epithelial cells (HMEC)", "quoted_text": "(§2) The BT20 cells were grown in the medium recommended by ATCC and were seeded into 96 well clear flat bottom plates at 3000 cells per well in 100 μl. The primary mammary cells were cultured as recommended by the manufacturer in mammary epithelial cell growth media (MEGM®) and were seeded at 3200 cells per well in 100 μl.\n(§3) Each plate also contained some wells with cells plus medium only and some wells with medium only as controls. After addition of the compounds, the plates were incubated at 37° C. for 48 hours or 96 hours for the HMEC and BT20 cell lines, respectively.\n(§4) The proliferation assay was performed using the manufacturer's protocols; a 20:1 solution of MTS and PMS was mixed and 10 to 40 μl was added to each well depending on the total volume in the wells. The plates were incubated at 37° C. for one to four hours, and the OD490 was determined. The OD reading of all wells was corrected for background by subtracting the reading of wells containing medium only. The wells containing cells only were used as a control for 100% viability."}, "[9]": {"system": "human cancer cell line BT20 (breast epithelial cancer)", "experiment": "CellTiter 96 cell proliferation assay, BT20", "type": "cell-based", "settings": "BT-20, 50% viability, 96 hours incubation", "quoted_text": "as §2, §3, §4"}, "[10]": {"system": "Plasmodium falciparum strain CSC-1 (Honduras)", "experiment": "antimalarial assay against Plasmodium falciparum (3H-phenylalanine uptake)", "type": "cell-based", "settings": "read-out: IC50 against Plasmodium falciparum", "quoted_text": "All cultures were maintained in a microaerophilic environment containing 1% oxygen/5% CO2 with the balance being nitrogen. […] Control cultures contained the same quantity of DMSO or water as that used in the experimental trials. Data were reported as IC50 values.\nParasite cultures, adjusted to 0.1-0.5% parasitemia by addition of freshly washed human erythrocytes, were pipetted into 96 well culture plates by adding 10 μl of a 50% cell suspension to each well to give a final volume of 5 μl of packed erythrocytes per well. The test compounds in RPMI 1640 were added at 95 μl per well to four wells per each concentration of test compound. Quadruplicate control wells were treated similarly with DMSO or water added without the test compounds present. The cultures were gassed and exposed to radiolabeled ^3[H]-phenylalanine (1 microcurie per well) for the final 24 hour of treatment. Cultures were monitored for bacterial contamination and for parasite viability by Giemsa staining of thin films. Ultimately, the cells were harvested onto glass-fiber filters, followed by liquid scintillation counting. The IC50 for each compound was determined by linear regression analysis using 50% of the control counts as the regression point. The experiment was repeated three times, the data averaged, and the standard deviation of the mean determined."}}}
{"compound": "Nc1[nH]c(=O)ncc1F", "note": "[Flucytosine]", "values": [{"measurement": "MIC", "setting": "[1]", "result": 8, "unit": "μml^−1"}, {"measurement": "MIC", "setting": "[2]", "result": 1.0, "unit": "μml^−1"}, {"measurement": "MIC", "setting": "[3]", "result": 0.12, "unit": "μml^−1"}, {"measurement": "MIC", "setting": "[4]", "result": 16, "unit": "μml^−1"}, {"measurement": "MIC", "setting": "[5]", "result": "<=0.06 μml^−1"}, {"measurement": "MIC", "setting": "[6]", "result": 0.5, "unit": "μml^−1"}, {"measurement": "MIC", "setting": "[7]", "result": "<=0.06 μml^−1"}, {"measurement": "MIC", "setting": "[8]", "result": 0.5, "unit": "μml^−1"}]}
{"compound": "CC(=O)O[C@H]1C(=O)[C@@]2(C)[C@H]([C@H](OC(=O)c3ccccc3)[C@]3(O)C[C@H](OC(=O)[C@H](O)[C@@H](NC(=O)c4ccccc4)c4ccccc4)C(C)=C1C3(C)C)[C@]1(OC(C)=O)CO[C@@H]1C[C@@H]2O", "note": "[taxol]", "values": [{"measurement": "IC50 at 48 h", "setting": "in vitro", "result": "25000 to 30000", "unit": "ng/mL"}, {"measurement": "IC50", "setting": "[9]", "result": 9, "unit": "ng/mL"}]}
{"compound": "CCN(CC)CCCC(C)Nc1ccnc2cc(Cl)ccc12", "note": "(centres unmarked) [chloroquine]", "values": [{"measurement": "IC50", "setting": "[10]", "result": 7, "unit": "ng/mL"}]}
